Data from PMC4077706, “Lifting the Mask: Identification of New Small Molecule Inhibitors of Uropathogenic Escherichia coli Group 2 Capsule Biogenesis” (PLoS ONE, 2014).
Like-named read-outs stand apart in the source and are kept apart here.

Columns and labels:
[1] = biological target: Serotonin (5-Hydroxytryptamine) 5-HT2B (Homo sapiens, UniProt P41595); test: Radioligand binding 271700; parameters: host or cells: CHO-K1; settings: 10 µM
[2] = system: E. coli UTI89; test: Human serum sensitization (MTT); format: cell-based, Escherichia coli; settings: 50 µM, pooled human serum, vs DMSO p = 0.0067
[3] = biological target: Muscarinic M3 (Homo sapiens, UniProt P20309); format: binding; parameters: host or cells: CHO-K1 cells; settings: 10 µM
Chain of Muscarinic M3 (P20309 whole entry): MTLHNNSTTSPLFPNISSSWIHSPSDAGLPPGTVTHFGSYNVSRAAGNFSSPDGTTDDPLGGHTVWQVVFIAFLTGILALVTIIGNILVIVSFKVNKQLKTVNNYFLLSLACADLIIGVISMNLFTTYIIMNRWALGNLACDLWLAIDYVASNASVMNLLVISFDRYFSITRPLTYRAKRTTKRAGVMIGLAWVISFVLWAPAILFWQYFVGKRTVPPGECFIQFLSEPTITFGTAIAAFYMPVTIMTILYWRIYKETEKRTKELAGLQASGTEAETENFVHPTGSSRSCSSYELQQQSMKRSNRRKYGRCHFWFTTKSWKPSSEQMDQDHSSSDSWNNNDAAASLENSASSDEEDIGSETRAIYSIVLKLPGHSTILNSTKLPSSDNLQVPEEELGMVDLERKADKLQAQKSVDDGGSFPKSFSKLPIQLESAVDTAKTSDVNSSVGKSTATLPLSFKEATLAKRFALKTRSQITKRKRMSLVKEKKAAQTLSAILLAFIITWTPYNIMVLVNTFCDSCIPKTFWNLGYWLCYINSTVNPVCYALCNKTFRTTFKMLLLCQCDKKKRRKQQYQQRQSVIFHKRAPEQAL

[4] = biological target: T1, Estrogen ERα (Homo sapiens, UniProt P03372); format: binding; settings: 10 µM
T1 construct: host or cells: insect Sf9 cells
T1 sequence (P03372 whole entry): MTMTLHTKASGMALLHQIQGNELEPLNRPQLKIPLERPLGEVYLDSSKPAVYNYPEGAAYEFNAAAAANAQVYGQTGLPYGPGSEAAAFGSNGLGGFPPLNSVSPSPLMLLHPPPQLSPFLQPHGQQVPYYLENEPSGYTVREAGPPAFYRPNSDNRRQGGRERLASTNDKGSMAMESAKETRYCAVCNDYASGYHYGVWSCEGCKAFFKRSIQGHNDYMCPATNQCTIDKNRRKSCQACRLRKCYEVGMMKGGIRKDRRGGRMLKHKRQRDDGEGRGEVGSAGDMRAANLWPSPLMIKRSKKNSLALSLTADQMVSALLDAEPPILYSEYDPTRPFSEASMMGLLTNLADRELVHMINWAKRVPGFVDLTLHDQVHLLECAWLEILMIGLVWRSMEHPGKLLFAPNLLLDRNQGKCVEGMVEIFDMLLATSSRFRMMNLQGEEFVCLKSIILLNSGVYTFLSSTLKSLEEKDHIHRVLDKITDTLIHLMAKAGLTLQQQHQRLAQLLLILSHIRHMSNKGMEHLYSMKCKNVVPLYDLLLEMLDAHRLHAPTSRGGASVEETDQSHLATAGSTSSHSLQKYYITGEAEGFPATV

[5] = biological target: T2, Dopamine D4.2 (Homo sapiens, UniProt P21917, DEL265-296); format: binding; settings: 10 µM
T2 construct: host or cells: CHO-K1 cells

[6] = system: Phorbol Ester; test: Radioligand binding 264500; parameters: species or system mouse; settings: 10 µM
[7] = biological target: Potassium Channel hERG (Homo sapiens, UniProt Q12809); settings: 10 µM
Chain of Potassium Channel hERG (Q12809 whole entry): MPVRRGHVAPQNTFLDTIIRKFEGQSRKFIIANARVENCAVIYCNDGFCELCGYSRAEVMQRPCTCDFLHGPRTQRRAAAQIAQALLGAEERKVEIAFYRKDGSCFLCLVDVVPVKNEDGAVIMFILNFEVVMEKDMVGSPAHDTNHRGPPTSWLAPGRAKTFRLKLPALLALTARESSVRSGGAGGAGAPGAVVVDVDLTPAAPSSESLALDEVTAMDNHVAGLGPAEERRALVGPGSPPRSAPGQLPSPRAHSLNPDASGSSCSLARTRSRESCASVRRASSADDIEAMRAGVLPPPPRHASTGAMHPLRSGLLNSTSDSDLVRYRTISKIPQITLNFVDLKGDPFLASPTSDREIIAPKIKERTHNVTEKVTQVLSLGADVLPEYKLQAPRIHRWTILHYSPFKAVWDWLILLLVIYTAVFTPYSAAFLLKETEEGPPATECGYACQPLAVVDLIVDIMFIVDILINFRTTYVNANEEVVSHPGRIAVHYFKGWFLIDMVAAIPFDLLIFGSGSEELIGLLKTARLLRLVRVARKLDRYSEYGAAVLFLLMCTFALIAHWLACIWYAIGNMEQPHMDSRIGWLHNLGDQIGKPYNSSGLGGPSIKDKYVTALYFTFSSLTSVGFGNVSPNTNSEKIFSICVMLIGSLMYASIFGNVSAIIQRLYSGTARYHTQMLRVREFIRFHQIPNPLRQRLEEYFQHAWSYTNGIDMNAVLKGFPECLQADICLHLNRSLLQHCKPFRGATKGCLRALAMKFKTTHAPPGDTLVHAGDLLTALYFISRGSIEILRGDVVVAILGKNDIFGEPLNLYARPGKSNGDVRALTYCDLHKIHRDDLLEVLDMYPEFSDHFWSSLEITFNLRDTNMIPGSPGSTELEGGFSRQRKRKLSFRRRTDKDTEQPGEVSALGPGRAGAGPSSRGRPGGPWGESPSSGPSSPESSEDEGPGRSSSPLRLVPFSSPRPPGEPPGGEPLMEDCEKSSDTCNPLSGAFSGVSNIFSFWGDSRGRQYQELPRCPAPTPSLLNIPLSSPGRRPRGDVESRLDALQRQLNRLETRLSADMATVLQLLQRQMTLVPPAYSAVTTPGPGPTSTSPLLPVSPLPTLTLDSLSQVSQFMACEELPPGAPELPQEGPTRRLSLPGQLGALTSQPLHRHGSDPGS

[8] = system: E. coli EV36 (K1:K-12 hybrid strain); test: T7 phage counter assay; format: cell-based, Escherichia coli; settings: average of at least 3 replicates ± SEM
Method: This secondary assay was performed as previously described and was used to distinguish compounds with phage inhibitory effects from true polysaccharide capsule inhibitors. […] Thus, the presence of a capsule inhibits T7-mediated lysis. In this assay, an increase in phage-induced lysis correlates to a decrease in capsule formation. […]. […] The positive control molecule C7 (100 µM final well concentration) was used in this screen.

[9] = system: Glutamate, NMDA, Phencyclidine; test: Radioligand binding 233000; parameters: species or system rat; settings: 10 µM
[10] = biological target: Opiate κ(OP2, KOP) (Homo sapiens, UniProt P41145); format: binding; settings: 10 µM
[11] = format: physicochemical
Method: SI2-Supporting Information- Goller et al.
Experimental procedures for aqueous and LB medium solubility, hepatic microsome stability, PAMPA permeability, and plasma stability
Aqueous and LB Medium Solubility: Solubility analysis was performed using a direct UV kinetic solubility method in a 96-well format. All liquid dispense and transfer steps were performed with the Freedom Evo automated liquid handler (Tecan US). Solubility measurements were performed in buffer solution (PBS (pH 7.4) or LB medium), in duplicate. Samples were incubated at room temperature for a minimum of 18 hrs to achieve equilibrium, then filtered (filter plate, pION Inc, P/N 110322) to remove any precipitate formed. The concentration of the compounds was measured by UV absorbance (250-498 nm) using the Infinite M200 (Tecan US) and compared to the spectra of the precipitation-free reference solutions. Spectroscopically pure 1-Propanol (Sigma P/N 256404) was used as a cosolvent to suppress precipitation in the reference solutions.
The solubility of each compound was determined using µSOL Evolution Plus software v3.2 (pION Inc) and is expressed as the concentration (µg/mL) of a solute in a saturated solution. […]
Hepatic Microsome Stability: Metabolic stability was assessed in the presence of human liver microsomes (XenoTech, P/N H0630) and mouse liver microsomes (XenoTech, P/N M1000). […]

[12] = biological target: T3, Adrenergic β2 (Homo sapiens, UniProt P07550); format: binding; settings: 10 µM
T3 construct: host or cells: CHO cells
T3 sequence (P07550 whole entry): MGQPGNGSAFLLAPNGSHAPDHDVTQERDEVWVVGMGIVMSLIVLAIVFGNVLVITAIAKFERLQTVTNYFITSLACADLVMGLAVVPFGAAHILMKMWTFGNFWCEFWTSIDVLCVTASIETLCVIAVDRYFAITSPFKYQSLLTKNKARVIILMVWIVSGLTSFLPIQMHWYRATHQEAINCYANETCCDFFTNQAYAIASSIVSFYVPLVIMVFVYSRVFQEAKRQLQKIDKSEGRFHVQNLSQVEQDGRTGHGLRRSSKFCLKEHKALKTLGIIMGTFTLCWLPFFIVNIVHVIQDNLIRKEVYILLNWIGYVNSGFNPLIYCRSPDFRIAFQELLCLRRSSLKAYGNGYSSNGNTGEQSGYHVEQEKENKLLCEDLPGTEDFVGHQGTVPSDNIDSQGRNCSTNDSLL

[13] = biological target: T4, Adrenergic α1D (Homo sapiens, UniProt P25100); format: binding; settings: 10 µM
T4 construct: host or cells: HEK-293 cells
T4 sequence (P25100 whole entry): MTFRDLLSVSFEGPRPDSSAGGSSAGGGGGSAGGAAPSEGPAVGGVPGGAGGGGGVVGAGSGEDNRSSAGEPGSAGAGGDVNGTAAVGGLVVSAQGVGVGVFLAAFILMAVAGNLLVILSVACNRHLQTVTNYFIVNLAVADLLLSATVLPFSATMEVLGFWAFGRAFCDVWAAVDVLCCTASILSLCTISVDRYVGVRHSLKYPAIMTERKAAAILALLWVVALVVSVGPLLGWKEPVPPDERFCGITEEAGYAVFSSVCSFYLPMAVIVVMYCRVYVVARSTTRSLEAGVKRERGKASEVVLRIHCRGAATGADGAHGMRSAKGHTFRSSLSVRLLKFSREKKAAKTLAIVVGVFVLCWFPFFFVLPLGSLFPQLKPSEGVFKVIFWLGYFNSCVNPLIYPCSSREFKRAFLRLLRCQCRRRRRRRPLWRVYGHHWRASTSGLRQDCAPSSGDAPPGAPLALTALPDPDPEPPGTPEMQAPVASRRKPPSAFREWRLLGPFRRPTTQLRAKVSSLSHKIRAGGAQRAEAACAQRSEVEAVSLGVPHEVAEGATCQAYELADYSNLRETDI

[14] = Human
[15] = biological target: T5, Androgen (Testosterone) AR (Rattus norvegicus, UniProt P15207); format: binding; settings: 10 µM
T5 construct: Eurofins Panlabs (assay Cat #) 285010; host or cells: E. coli
T5 sequence (P15207 607-902): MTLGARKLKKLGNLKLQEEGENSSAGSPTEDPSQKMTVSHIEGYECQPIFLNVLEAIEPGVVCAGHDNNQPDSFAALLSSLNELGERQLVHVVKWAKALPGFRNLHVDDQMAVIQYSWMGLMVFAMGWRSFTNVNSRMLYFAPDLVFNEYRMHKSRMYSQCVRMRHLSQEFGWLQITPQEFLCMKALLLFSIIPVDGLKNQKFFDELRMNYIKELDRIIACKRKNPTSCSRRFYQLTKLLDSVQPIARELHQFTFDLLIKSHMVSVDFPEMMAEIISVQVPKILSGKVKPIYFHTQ

[16] = system: E. coli UTI89
[17] = biological target: T6, Melatonin MT1 (Homo sapiens, UniProt P48039); format: binding; settings: 10 µM
T6 construct: host or cells: CHO-K1 cells

[18] = biological target: Bradykinin B2 (Homo sapiens, UniProt P30411); format: binding; parameters: host or cells: Chem-1 cells; settings: 10 µM
[19] = biological target: Sigma σ1 (Homo sapiens, UniProt Q99720); format: binding; settings: 10 µM
Chain of Sigma σ1 (Q99720 whole entry): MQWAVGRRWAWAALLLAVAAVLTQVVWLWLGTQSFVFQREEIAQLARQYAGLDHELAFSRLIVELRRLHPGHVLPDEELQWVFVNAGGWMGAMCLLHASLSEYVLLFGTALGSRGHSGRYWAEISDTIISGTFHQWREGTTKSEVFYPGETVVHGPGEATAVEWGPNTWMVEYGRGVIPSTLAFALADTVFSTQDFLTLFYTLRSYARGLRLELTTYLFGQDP

[20] = biological target: T7, Histamine H3 (Homo sapiens, UniProt Q9Y5N1); test: Radioligand binding 239820; settings: 10 µM
T7 construct: host or cells: CHO-K1 cells
T7 sequence (Q9Y5N1 whole entry): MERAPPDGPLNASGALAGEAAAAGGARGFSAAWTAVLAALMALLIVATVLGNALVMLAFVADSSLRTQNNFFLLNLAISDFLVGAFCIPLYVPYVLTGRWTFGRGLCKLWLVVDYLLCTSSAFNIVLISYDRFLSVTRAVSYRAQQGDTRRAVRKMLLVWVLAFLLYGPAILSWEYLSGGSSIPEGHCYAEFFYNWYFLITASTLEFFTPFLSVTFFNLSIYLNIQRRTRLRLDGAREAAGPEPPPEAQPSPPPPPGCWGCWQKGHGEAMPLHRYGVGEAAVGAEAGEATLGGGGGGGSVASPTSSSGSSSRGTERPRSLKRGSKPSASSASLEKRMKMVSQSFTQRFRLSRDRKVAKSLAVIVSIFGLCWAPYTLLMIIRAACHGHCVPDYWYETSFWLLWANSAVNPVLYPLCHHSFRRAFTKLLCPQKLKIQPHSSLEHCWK

[21] = pre-treatment of bacteria without pretreatment of the mice

Chain of Serotonin (5-Hydroxytryptamine) 5-HT2B (P41595 whole entry): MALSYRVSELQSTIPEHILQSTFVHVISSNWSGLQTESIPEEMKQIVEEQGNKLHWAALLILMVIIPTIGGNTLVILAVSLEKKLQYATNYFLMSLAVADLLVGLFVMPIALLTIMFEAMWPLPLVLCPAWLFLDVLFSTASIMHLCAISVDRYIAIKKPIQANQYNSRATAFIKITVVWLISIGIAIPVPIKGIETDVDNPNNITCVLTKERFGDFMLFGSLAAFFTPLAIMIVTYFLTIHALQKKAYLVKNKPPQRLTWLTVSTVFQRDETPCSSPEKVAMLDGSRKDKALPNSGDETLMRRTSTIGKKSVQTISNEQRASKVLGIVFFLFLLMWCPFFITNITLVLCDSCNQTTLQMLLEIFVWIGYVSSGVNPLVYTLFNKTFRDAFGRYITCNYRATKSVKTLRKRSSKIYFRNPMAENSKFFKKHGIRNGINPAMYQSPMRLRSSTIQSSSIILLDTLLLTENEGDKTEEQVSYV

For CCOc1ccc(-c2cc(NC(=O)c3c(F)cccc3F)c(C(=O)O)s2)cc1 [DU011], the “% Inh.” value [1] was 19%, the “serum-mediated killing of UPEC (MTT)” value [2] was “further increased serum-mediated killing” and the “% Inh.” value [3] was -3%. For the same compound, the “% Inh.” value [4] was 13%, the “% Inh.” value [5] was 0% and the “% Inh.” value [6] was 1%. The “% Inh.” value [7] was 9%, the IC50 [8] was 690 ± 780 nM and the “% Inh.” value [9] was 2%. The “% Inh.” value [10] was 10%, the “Aqueous Solubility” value ([11]; 1× PBS) was 92.6 µg/mL and the “Aqueous Solubility” value ([11]; LB medium) was 68 µg/mL. For the same compound, the “% Inh.” value [12] was 8%, the “% Inh.” value [13] was 7% and the “Plasma Stability, percent remaining at 3 hrs” value [14] was 95.31%. For the same compound, the “% Inh.” value [15] was 5%, the body weight [16, 21] was “ongoing weight loss among surviving animals” and the survival [16, 21] was 50%. For the same compound, the body weight ([16]; pretreatment of the bacteria and mice) was “recovery of pre-infection weights”, the survival ([16]; pretreatment of the bacteria and mice, 48 hrs, 10^8 CFU UTI89 i.p.) was 100% and the tolerability in mice ([16]; subcutaneous 100 µL of 1 mg/ml twice daily) was “without evident side effects”. For the same compound, the body weight ([16]; subcutaneous DU011 and untreated UTI89) was “stabilization of weights at the end of the experiment”, the survival ([16]; subcutaneous DU011 and untreated UTI89, 48 hrs) was 80% and the “% Inh.” value [17] was 7%. The “% Inh.” value [18] was 4%, the “% Inh.” value [19] was 9% and the “% Inh.” value [20] was 13%.
